The conditions of data set [1]: bacteroides fragilis, 12 h, 2 µM.
Description: The drug is tested on Bacteroides fragilis strain: NCTC 9343 for biotransformation. The drug concentrations were measured before and after a 12-h incubation by liquid-chromatography-coupled mass spectrometry (LC–MS)
The nature of data set [2]: The drug is tested on Odoribacter splanchnicus strain: fecal isolate for biotransformation. The drug concentrations were measured before and after a 12-h incubation by liquid-chromatography-coupled mass spectrometry (LC–MS). To be noted: 2 µM.
Data set [3] can be described thus: The drug is tested on Dorea formicigenerans strain: ATCC27755 for biotransformation. The drug concentrations were measured before and after a 12-h incubation by liquid-chromatography-coupled mass spectrometry (LC–MS). As to conditions: 2 µM.
For data set [4] the following is noted: limosilactobacillus reuteri cf48-3a, 12 h, 2 µM.
Description: The drug is tested on Lactobacillus reuteri CF48-3A strain: BEI HM-102 for biotransformation. The drug concentrations were measured before and after a 12-h incubation by liquid-chromatography-coupled mass spectrometry (LC–MS)
A short description of data set [5]: The drug is tested on Coprococcus comes strain: ATCC27758 for biotransformation. The drug concentrations were measured before and after a 12-h incubation by liquid-chromatography-coupled mass spectrometry (LC–MS). More on the design: dose 2 uM, timepoint 0 vs 12 hours. The class given is ADME. As to conditions: 2 µM.
Data set [6] in a line: The drug is tested on Blautia hansenii strain: DSM20583 for biotransformation. The drug concentrations were measured before and after a 12-h incubation by liquid-chromatography-coupled mass spectrometry (LC–MS). As to conditions: 2 µM.
The nature of data set [7]: The drug is tested on Bacteroides fragilis strain: HMW610 for biotransformation. The drug concentrations were measured before and after a 12-h incubation by liquid-chromatography-coupled mass spectrometry (LC–MS). To be noted: 2 µM.

As to `CCOC(=O)[C@H](CCc1ccccc1)N[C@@H](C)C(=O)N1Cc2ccccc2C[C@H]1C(=O)O`, the “Bacterial Biotransformation” value in data set [1] is reported as “Compound metabolized”; in data set [2], “Compound metabolized”; in data set [3], “Compound NOT metabolized”; in data set [4], “Compound NOT metabolized”; in data set [5] it was “Compound NOT metabolized”; in data set [6] it was “Compound metabolized”.
As for `CCCC(=O)Nc1ccc(OCC(O)CNC(C)C)c(C(C)=O)c1` (configuration not stated) [ACEBUTOLOL], the “Bacterial Biotransformation” value in data set [1], in data set [2], in data set [3], in data set [4], in data set [5] and in data set [7] was “Compound NOT metabolized” in each case.
Turning to `CCN(CC)CCNC(=O)c1ccc(NC(C)=O)cc1` [ACECAINIDE], the “Bacterial Biotransformation” value in data set [3], in data set [5] and in data set [7] was “Compound NOT metabolized” each time.
Turning to `CN(C)CCc1c[nH]c2ccc(CS(=O)(=O)N3CCCC3)cc12` [ALMOTRIPTAN], the “Bacterial Biotransformation” value in data set [1], in data set [2], in data set [3] and in data set [5] was “Compound NOT metabolized” in each case.
For the compound `C=CCc1ccccc1OCC(O)CNC(C)C` (configuration not stated) [ALPRENOLOL], the “Bacterial Biotransformation” value in data set [1], in data set [2], in data set [3], in data set [4], in data set [5] and in data set [6] was “Compound NOT metabolized” each time.
Take `CCN1CCCC1CNC(=O)c1cc(S(=O)(=O)CC)c(N)cc1OC` (configuration not stated) [AMISULPRIDE]: the “Bacterial Biotransformation” value in data set [1], in data set [2], in data set [3], in data set [4] and in data set [5] was “Compound NOT metabolized” throughout.
As to `O=C1CN2Cc3c(ccc(Cl)c3Cl)N=C2N1` [ANAGRELIDE], the “Bacterial Biotransformation” value is “Compound NOT metabolized” in data set [1]; “Compound metabolized” in data set [2]; “Compound NOT metabolized” in data set [3]; “Compound NOT metabolized” in data set [5]; “Compound metabolized” in data set [6].
For the compound `CC(C)NCC(O)COc1ccc(CC(N)=O)cc1` (configuration not stated) [ATENOLOL], the “Bacterial Biotransformation” value in data set [1], in data set [3], in data set [4] and in data set [5] was “Compound NOT metabolized” each time.
With `CN1CCC(=C2c3ccccc3CCc3cccnc32)CC1.O=C(O)/C=C\C(=O)O.O=C(O)/C=C\C(=O)O` [AZATADINE MALEATE], the “Bacterial Biotransformation” value in data set [1], in data set [3], in data set [4], in data set [5] and in data set [7] was “Compound NOT metabolized” throughout.
With `CC(C)NCC(O)COc1ccc(CCOCC2CC2)cc1` (configuration not stated) [BETAXOLOL], the “Bacterial Biotransformation” value in data set [1], in data set [2], in data set [3], in data set [4], in data set [5] and in data set [7] was “Compound NOT metabolized” in each case.
For `OC(CCN1CCCCC1)(c1ccccc1)C1CC2C=CC1C2` (configuration not stated) [BIPERIDEN], the “Bacterial Biotransformation” value in data set [2], in data set [3], in data set [4], in data set [5] and in data set [6] was “Compound NOT metabolized” in each case.
Regarding `CC(C)NCC(O)COc1ccc(COCCOC(C)C)cc1.CC(C)NCC(O)COc1ccc(COCCOC(C)C)cc1.O=C(O)/C=C/C(=O)O` (configuration not stated) [BISOPROLOL FUMARATE], the “Bacterial Biotransformation” value in data set [1], in data set [2], in data set [3], in data set [5] and in data set [7] was “Compound NOT metabolized” throughout.
With `CCN(CC)CCOCCOC(=O)C1(c2ccccc2)CCCC1.O=C(O)CC(O)(CC(=O)O)C(=O)O` [CARBETAPENTANE CITRATE], the “Bacterial Biotransformation” value in data set [1], in data set [2], in data set [3], in data set [4], in data set [5] and in data set [6] was “Compound metabolized” each time.
Regarding `CN(C)CCOC(c1ccc(Cl)cc1)c1ccccn1.O=C(O)/C=C\C(=O)O` (configuration not stated) [CARBINOXAMINE MALEATE], the “Bacterial Biotransformation” value in data set [1], in data set [2], in data set [3], in data set [5] and in data set [6] was “Compound NOT metabolized” each time.
As for `Br.CN(C)CCCC1(c2ccc(F)cc2)OCc2cc(C#N)ccc21` (configuration not stated) [CITALOPRAM HYDROBROMIDE], the “Bacterial Biotransformation” value in data set [1], in data set [3], in data set [4], in data set [5] and in data set [7] was “Compound NOT metabolized” in each case.
Regarding `Clc1cccc(Cl)c1N=C1NCCN1` [CLONIDINE], the “Bacterial Biotransformation” value is recorded as “Compound metabolized” in data set [1]; “Compound metabolized” in data set [2]; “Compound NOT metabolized” in data set [3]; “Compound NOT metabolized” in data set [4]; “Compound NOT metabolized” in data set [5].
As to `O=P1(N(CCCl)CCCl)NCCCO1` (configuration not stated) [CYCLOPHOSPHAMIDE ANHYDROUS], the results for the “Bacterial Biotransformation” value in data set [1], in data set [2] and in data set [6] were “Compound NOT metabolized”, “Compound NOT metabolized” and “Compound metabolized”, respectively.
Consider `CN1C[C@H](C(=O)N[C@]2(C)O[C@@]3(O)[C@@H]4CCCN4C(=O)[C@H](Cc4ccccc4)N3C2=O)C=C2c3cccc4[nH]cc(c34)C[C@H]21.CN1C[C@H](C(=O)N[C@]2(C)O[C@@]3(O)[C@@H]4CCCN4C(=O)[C@H](Cc4ccccc4)N3C2=O)C=C2c3cccc4[nH]cc(c34)C[C@H]21.O=C(O)C(O)C(O)C(=O)O` [ERGOTAMINE TARTRATE], for which the “Bacterial Biotransformation” value in data set [1] was “Compound metabolized”; in data set [2] it was “Compound metabolized”; in data set [3] it was “Compound NOT metabolized”; in data set [4], “Compound metabolized”; in data set [6] it was “Compound metabolized”.
For `c1ccc([C@H]2CN3CCSC3=N2)cc1` [LEVAMISOLE], the “Bacterial Biotransformation” value in data set [1], in data set [2], in data set [3], in data set [5] and in data set [7] was “Compound metabolized” each time.
For the compound `CC(Oc1c(Cl)cccc1Cl)C1=NCCN1` (configuration not stated) [LOFEXIDINE], the “Bacterial Biotransformation” value in data set [1], in data set [2], in data set [3], in data set [4], in data set [5] and in data set [6] was “Compound metabolized” each time.
With `CC[C@H](C)C(=O)O[C@H]1C[C@@H](C)C=C2C=C[C@H](C)[C@H](CC[C@@H]3C[C@@H](O)CC(=O)O3)[C@H]21` [LOVASTATIN], the “Bacterial Biotransformation” value in data set [1] is given as “Compound metabolized”; in data set [2], “Compound metabolized”; in data set [3], “Compound NOT metabolized”; in data set [4], “Compound NOT metabolized”; in data set [5] it was “Compound NOT metabolized”; in data set [7], “Compound metabolized”.
With `COc1ccc2c(c1OC)C(=O)O[C@@H]2[C@H]1c2c(cc3c(c2OC)OCO3)CCN1C` [NOSCAPINE], the “Bacterial Biotransformation” value in data set [1] is “Compound metabolized”; in data set [2], “Compound metabolized”; in data set [3], “Compound metabolized”; in data set [4], “Compound metabolized”; in data set [5], “Compound metabolized”; in data set [7], “Compound NOT metabolized”.
Regarding `CCCc1nc(C(C)(C)O)c(C(=O)OCc2oc(=O)oc2C)n1Cc1ccc(-c2ccccc2-c2nnn[nH]2)cc1` [OLMESARTAN MEDOXOMIL], the “Bacterial Biotransformation” value in data set [1], in data set [2], in data set [3], in data set [4] and in data set [7] was “Compound metabolized” in each case.
In the case of `CCOC(=O)[C@H](CCc1ccccc1)N[C@@H](C)C(=O)N1[C@H](C(=O)O)C[C@H]2CCCC[C@@H]21` [TRANDOLAPRIL], the “Bacterial Biotransformation” value is “Compound metabolized” in data set [1]; “Compound metabolized” in data set [2]; “Compound NOT metabolized” in data set [3]; “Compound NOT metabolized” in data set [4]; “Compound NOT metabolized” in data set [5].

Values taken from ChEMBL document CHEMBL5303573, “Mapping human microbiome drug metabolism by gut bacteria and their genes” (Nature, 2019).
